According to US10285984B2, “Methods and compositions for improving gut microbiota population” (SHANGHAI JIAO TONG UNIVERSITY, priority 2012, dated 2019):

Key:
Type in all cases: in vivo, Wistar rats
[1] = system: gut short-chain fatty acid; test: Short-chain fatty acid level in rat feces by gas chromatography; conditions: oral 100 mg/kg body weight, FIG. 3
Description: These examples use Wistar rats (8 weeks old, male) as testing subjects and berberine as a representative compound. 40 Wistar rats were acclimatized for two weeks and were subsequently randomly divided into four groups: normal diet group (NCD), normal diet plus berberine treatment (NCD+BBR), high fat diet (HFD), and high fat diet plus berberine treatment (HFD+BBR). Each group continued for another 18 weeks. During these 18 weeks, the NCD+BBR group received intragastric administration of berberine at stated levels. Feces samples from each animal were collected at various time points. 454 pyrosequencing was performed to analyze gut microbiota structure. Gas chromatography was used to assay the short-chain fatty acid level of the feces. In addition, weight, food intake, insulin sensitivity, systemic inflammation levels were monitored and measured during the 18-week period. The levels of short-chain fatty acid (including acetic acid, propionic acid, butyric acid, valeric acid, isobutyric acid, isovaleric acid, etc.) in rat feces were assayed by gas chromatography. […] Therefore, berberine is capable of increasing gut short-chain fatty acid level in rats fed normal diet or high fat diet.

[2] = Obesity phenotype of rats fed normal or high fat diet: body weight, adiposity index, food intake, liver and pancreas
Description: These examples use Wistar rats (8 weeks old, male) as testing subjects and berberine as a representative compound. 40 Wistar rats were acclimatized for two weeks and were subsequently randomly divided into four groups: normal diet group (NCD), normal diet plus berberine treatment (NCD+BBR), high fat diet (HFD), and high fat diet plus berberine treatment (HFD+BBR). Each group continued for another 18 weeks. During these 18 weeks, the NCD+BBR group received intragastric administration of berberine at stated levels. Feces samples from each animal were collected at various time points. 454 pyrosequencing was performed to analyze gut microbiota structure. Gas chromatography was used to assay the short-chain fatty acid level of the feces. In addition, weight, food intake, insulin sensitivity, systemic inflammation levels were monitored and measured during the 18-week period. The body weight of all four groups of rats were monitored during the duration of the experiments and analyzed. […] At the end of experiment, animals were euthanized. Fasting body weight, epididymal fat weight, and perirenal fat weight were measured.

[3] = Insulin sensitivity in rats: FBG, FINS, HOMA-IR, oral glucose tolerance test, intraperitoneal insulin tolerance test
Description: These examples use Wistar rats (8 weeks old, male) as testing subjects and berberine as a representative compound. 40 Wistar rats were acclimatized for two weeks and were subsequently randomly divided into four groups: normal diet group (NCD), normal diet plus berberine treatment (NCD+BBR), high fat diet (HFD), and high fat diet plus berberine treatment (HFD+BBR). Each group continued for another 18 weeks. During these 18 weeks, the NCD+BBR group received intragastric administration of berberine at stated levels. Feces samples from each animal were collected at various time points. 454 pyrosequencing was performed to analyze gut microbiota structure. Gas chromatography was used to assay the short-chain fatty acid level of the feces. In addition, weight, food intake, insulin sensitivity, systemic inflammation levels were monitored and measured during the 18-week period. The fasting blood glucose (FBG) and fasting insulin in serum (FINS) were measured for all four experimental groups of rats. […] In order to further examine insulin sensitivity, oral glucose tolerance test and intraperitoneal injection of insulin tolerance test were conducted, and the results are shown in FIG. 5D, and 5E, respectively.

[4] = Systemic inflammation level in rats: serum LBP, MCP-1, leptin, adiponectin
Description: (§1) These examples use Wistar rats (8 weeks old, male) as testing subjects and berberine as a representative compound. 40 Wistar rats were acclimatized for two weeks and were subsequently randomly divided into four groups: normal diet group (NCD), normal diet plus berberine treatment (NCD+BBR), high fat diet (HFD), and high fat diet plus berberine treatment (HFD+BBR). Each group continued for another 18 weeks. During these 18 weeks, the NCD+BBR group received intragastric administration of berberine at stated levels. Feces samples from each animal were collected at various time points. 454 pyrosequencing was performed to analyze gut microbiota structure. Gas chromatography was used to assay the short-chain fatty acid level of the feces. In addition, weight, food intake, insulin sensitivity, systemic inflammation levels were monitored and measured during the 18-week period.
In order to evaluate the systemic inflammation levels of all four experimental groups of rats, the serum levels of lipopolysaccharide (LPS)-binding protein (LBP), monocyte chemoattractant protein-1 (MCP-1), leptin, and adiponectin were measured, and results are shown in FIG. 6.
MCP-1 is a pro-inflammatory cytokine that functions in chemotaxis and activation of monocytes/macrophages. Occurrence and development of many inflammation-related diseases are closely related to MCP-1, including atherosclerosis, obesity, type 2 diabetes, arthritis, sepsis, and chronic bacterial infection.
Leptin is a hormone secreted by adipose tissue, and broadly participates in lipid, glucose, and energy metabolism.
The adiponectin levels in all four groups were analyzed. […] Therefore, berberine improves gut microbiota population, reduces LPB, MCP-1, and lpetin level, and increases adiponectin secretion. TABLE 1 16S rRNA gene V3 region sequence of those bacteria enriched by berberine.

gut microbiota = test: Gut microbiota structure in rat feces by 454 pyrosequencing and multivariate statistics (PCoA, MANOVA, RDA, Shannon-Wiener index)
Description: as §1
The gut microbiota populations in rats from all four experimental groups were analyzed by 454 pyrosequencing and multivariate statistical analyses. […] Diet also exerted statistically significant influence on gut microbiota population.
268 berberine-related OTU were identified by redundancy analysis (RDA) and the detailed results are shown in FIG. 2, TABLE 1, and TABLE 2. 93 OTU (SEQ_ID_NO 1-93) (TABLE 1) are enriched by berberine, while 175 OTU (SEQ_ID_NO 94-268) (TABLE 2) were suppressed or eliminated.
The taxonomy of these 268 OTU was analyzed using RDP classifier with representative sequence of the OTU. […] Among them, Blautia, Allobaculum, Prevotella, Bacteroides, and Butyricimonas are relatively abundant and are capable of producing short-chain fatty acid.

Q: For `COc1ccc2cc3[n+](cc2c1OC)CCc1cc2c(cc1-3)OCO2` [berberine], which “effect on levels of acetic acid and propionic acid in feces” value [1] is on record?
A: The value was “especially pronounced”.

Q: What about the “level of gut short-chain fatty acid in feces” value ([1]; rats fed normal diet or high fat diet) of the same compound?
A: Its value is “may increase the level of gut short-chain fatty acid”.

Q: And the “body weight of HFD+BBR group versus normal diet group” value ([2]; 100 mg/kg, entire experiment, P>0.05)?
A: Its value is “no statistically significant difference”.

Q: What about the “effect on liver and pancreas / side effect of long term use” value ([2]; 18 weeks) of the same compound?
A: Its value is “no obvious side effect”.

Q: And the “adiposity index ([epididymal fat weight+perirenal fat]/fasting weight×100)” value ([2]; 18 weeks, HFD, FIG. 4B)?
A: The value was “significantly reduces adiposity index”.

Q: What about the “body weight of rats fed a normal diet” value ([2]; NCD+BBR, FIG. 4) of the same compound?
A: The value was “influences, to a certain degree”.

Q: And the body weight growth ([2]; intragastric 100 mg/kg, 18 weeks, especially rats fed high fat diet, FIG. 4A)?
A: The body weight growth was “effectively limits rat body weight growth”.

Q: What about the “food intake (calorie intake)” value ([2]; oral 100 mg/kg body weight, especially rats fed a high fat diet, FIG. 4C) of the same compound?
A: Its value is “significant inhibitory effect on rat food intake”.

Q: And the “oral glucose tolerance test” value ([3]; 100 mg/kg body weight, 18 weeks HFD, FIG. 5D)?
A: Its value is “significantly prevented the loss of glucose tolerance”.

Q: What about the “intraperitoneal injection of insulin tolerance test” value ([3]; 100 mg/kg body weight, 18 weeks HFD, FIG. 5E) of the same compound?
A: The value was “significantly prevented the loss of glucose tolerance and insulin tolerance”.

Q: What about the “fasting insulin in serum (FINS)” value ([3]; 100 mg/kg body weight, HFD+BBR, FIG. 5B) of the same compound?
A: Its value is “significantly reduced”.

Q: And the “HOMA insulin resistance index” value ([3]; 100 mg/kg body weight, HFD, P<0.05, FIG. 5C)?
A: The value was “prevented the formation of insulin resistance”.

Q: And the “fasting blood glucose (FBG) reduction” value ([3]; HFD rats, P<0.05, FIG. 5A)?
A: The value was “significant”.

Q: And the “fasting blood glucose (FBG)” value ([3]; NCD and HFD rats, FIG. 5A)?
A: Its value is “effectively reduced FBG”.

Q: What about the “serum lipopolysaccharide (LPS)-binding protein (LBP)” value ([4]; 100 mg/kg, HFD, P<0.05, FIG. 6A) of the same compound?
A: Its value is “significantly abrogated the increase of serum LBP”.

Q: And the “serum MCP-1 level” value ([4]; HFD rats, FIG. 6B)?
A: The value was “significantly reduced”.

Q: And the “serum MCP-1 level versus NCD group” value ([4]; HFD+BBR versus NCD)?
A: Its value is “even lower than that of NCD group”.

Q: What about the serum leptin level ([4]; especially rats fed a HFD, P<0.05, FIG. 6C) of the same compound?
A: The serum leptin level was “significantly reduced the serum leptin level”.

Q: And the “adiponectin level normalized against body fat weight” value ([4]; rats fed a HFD, P<0.01, FIG. 6D)?
A: The value was “significantly increased adiponectin level”.

Q: What about the “number of berberine-related OTU identified (RDA)” value (gut microbiota; FIG. 2) of the same compound?
A: Its value is 268 OTU.

Q: And the “share of overall changes in the gut microbiota population accounted for (PCoA, unweighted Unifrac distance)” value (gut microbiota; NCD and HFD rats, FIG. 1A)?
A: Its value is 12.6%.

Q: And the “diversity of gut microbiota population (Shannon-Wiener index)” value (gut microbiota; P<0.05, FIG. 1C)?
A: The value was “reduces diversity of gut microbiota population at a statistically significant level”.

Q: What about the “number of OTU enriched (RDA)” value (gut microbiota; SEQ_ID_NO 1-93, TABLE 1) of the same compound?
A: Its value is 93 OTU.

Q: And the “number of OTU suppressed or eliminated (RDA)” value (gut microbiota; SEQ_ID_NO 94-268, TABLE 2)?
A: Its value is 175 OTU.

Q: What about the “effect on gut microbiota structure (PCoA)” value (gut microbiota; normal diet group and high fat diet group) of the same compound?
A: The value was “altered gut microbiota structure in both the normal diet group and high fat diet group at a statistically significant level”.
